Assay results reported in article PMC6858373 (Scientific Reports, 2019).
Where two headings read alike, the source gives them in different places.

Columns and labels:
[1] = target: full-length P. pyralis luciferase (Photinus pyralis, UniProt P08659, K549A/L550V/N119G/N50D/S548I); assay type: cell-based; settings: for Luciferase Assay % Lum / Luciferase Assay Z-score / Luciferase Assay % Lum (full-length luciferase counter-screen) / Luciferase Assay Z-score (full-length luciferase counter-screen): CC_NCI screening, normalized to on-plate 0.3% DMSO controls; for Luciferase Assay % Lum: full-length luciferase counter-screen luminescence; for Luciferase Assay Z-score: full-length luciferase counter-screen
[2] = target: T1, FGF14:Nav1.6 C-tail complex (Homo sapiens, UniProt Q92915+Q9UQD0); assay: Split-luciferase complementation assay (LCA) in Clone V double stable HEK293 cells; assay type: cell-based; settings: for Split Luciferase Assay % Lum Set 1 / Split Luciferase Assay Z-score Set 1: biological replicate Set 1; for Split Luciferase Assay % Lum Set 1 / Split Luciferase Assay %Lum Set 2: normalized to on-plate 0.3% DMSO controls (n=16 per plate); for Split Luciferase Assay %Lum Set 2 / Split Luciferase Assay Z-score Set 2: biological replicate Set 2; for Split Luciferase Assay Z-score Set 1 / Split Luciferase Assay Z-score Set 2: normalized to on-plate 0.3% DMSO controls; for Split Luciferase Assay %Lum Avg: average of Set 1 and Set 2, normalized to 0.3% DMSO controls
T1 construct: polymerase chain reaction (PCR) amplification of the FGF14 open reading frame (nt 1–855); C-terminal fragment of Nav1.6 (amino acids 1763–1976) fused with CD4ΔC-tail (amino acids 1–395); expressed in transfected cells

[3] = CC_NCI screening, LCA luminescence

T1 sequence (Q92915 1-252 isoform Q92915-2): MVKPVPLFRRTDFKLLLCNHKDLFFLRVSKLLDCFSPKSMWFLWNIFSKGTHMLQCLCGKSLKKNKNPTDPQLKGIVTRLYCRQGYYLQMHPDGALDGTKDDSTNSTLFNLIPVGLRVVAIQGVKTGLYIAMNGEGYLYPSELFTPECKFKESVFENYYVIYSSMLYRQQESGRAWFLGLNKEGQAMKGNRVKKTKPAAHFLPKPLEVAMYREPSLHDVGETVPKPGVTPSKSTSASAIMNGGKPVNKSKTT
T1 sequence (Q9UQD0 1763-1976 limits assumed): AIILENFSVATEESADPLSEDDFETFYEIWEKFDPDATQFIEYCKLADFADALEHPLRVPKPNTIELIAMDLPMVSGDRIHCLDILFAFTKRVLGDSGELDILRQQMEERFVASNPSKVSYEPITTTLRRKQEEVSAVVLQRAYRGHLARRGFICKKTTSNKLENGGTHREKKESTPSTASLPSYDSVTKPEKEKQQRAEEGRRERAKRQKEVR
full-length P. pyralis luciferase, sequence (P08659 whole entry N50D/N119G/S548I/K549A/L550V, looked up): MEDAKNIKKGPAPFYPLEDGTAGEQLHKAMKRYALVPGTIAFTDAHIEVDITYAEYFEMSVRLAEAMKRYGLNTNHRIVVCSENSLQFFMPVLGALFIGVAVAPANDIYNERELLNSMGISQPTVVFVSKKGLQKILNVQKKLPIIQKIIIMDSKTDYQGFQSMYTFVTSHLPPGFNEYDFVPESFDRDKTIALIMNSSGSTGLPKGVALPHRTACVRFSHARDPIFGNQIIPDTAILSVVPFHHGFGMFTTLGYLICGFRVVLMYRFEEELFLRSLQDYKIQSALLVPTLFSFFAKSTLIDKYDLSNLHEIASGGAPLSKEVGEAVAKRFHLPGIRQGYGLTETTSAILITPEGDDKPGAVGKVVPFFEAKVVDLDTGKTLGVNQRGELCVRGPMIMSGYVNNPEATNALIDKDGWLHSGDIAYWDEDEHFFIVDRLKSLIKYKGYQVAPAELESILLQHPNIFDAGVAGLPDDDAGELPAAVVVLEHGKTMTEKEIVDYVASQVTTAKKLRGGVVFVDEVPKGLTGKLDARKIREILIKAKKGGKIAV

| Structure (SMILES) | Luciferase Assay % Lum [1] | Luciferase Assay Z-score [1] | Toxicity Assay % Fluor (Clone V cells; human, 16 h, 30 µM) | Toxicity Assay Z-score (Clone V cells; human, 16 h, 30 µM) | Split Luciferase Assay % Lum Set 1 [2, 3] | Split Luciferase Assay %Lum Set 2 [2, 3] | Split Luciferase Assay Z-score Set 1 ([2]; CC_NCI screening, LCA) | Split Luciferase Assay Z-score Set 2 ([2]; CC_NCI screening, LCA) | Split Luciferase Assay %Lum Avg ([2]; CC_NCI screening) | Toxicity Assay % Fluor (Clone V cells) | Toxicity Assay Z-score (Clone V cells) | also measured |
| --- | --- | --- | --- | --- | --- | --- | --- | --- | --- | --- | --- | --- |
| CCN(CCO)CCCOc1ccc2c(Nc3cc(CC(=O)Nc4cccc(F)c4)[nH]n3)ncnc2c1 [AZD1152-HQPA] | 84.20% | -2.02 | 93.28% | -0.94 | 87.29% | 100.91% | -1.03 | 0.07 | 94.10% |  |  |  |
| Cc1cc(C(C)Nc2ccccc2)c2nc(N3CCOCC3)cc(=O)n2c1 (stereo not shown) [TGX 221] |  |  |  |  |  |  |  |  |  |  |  | Luciferase Assay % Lum (full-length luciferase counter-screen) [1]: 101.89%; Luciferase Assay Z-score (full-length luciferase counter-screen) [1]: 0.24; Toxicity Assay Z-score (CTB cell viability) (Clone V cells): 2.19; Split Luciferase Assay Z-score Set 1 ([2]; CC_NCI screening): 0.82; Split Luciferase Assay % Lum Set 1 ([2]; CC_NCI screening): 110.12%; Split Luciferase Assay Z-score Set 2 ([2]; CC_NCI screening): 1.94; Split Luciferase Assay %Lum Set 2 ([2]; CC_NCI screening): 123.80%; Split Luciferase Assay %Lum Avg [2]: 116.96% |
| O=C1c2c(O)ccc(O)c2C(=O)c2c(NCCNCCO)ccc(NCCNCCO)c21 [Mitoxantrone] | 40.29% | -7.65 | 90.67% | -1.30 | 5.76% | 15.60% | -7.62 | -6.87 | 10.68% |  |  |  |
| Nc1ncnc2c1c(-c1cnc3[nH]ccc3c1)nn2C1CCCC1 [PP121, reference compound] |  |  |  |  |  |  |  |  |  |  |  | Z-score, full-length luciferase assay ([1]; 30 µM, 384-well plates, vs on-plate 0.3% DMSO): 3.11; Luciferase Assay % Lum (full-length luciferase counter-screen) [1]: 124.27%; Luciferase Assay Z-score (full-length luciferase counter-screen) [1]: 3.11; Toxicity Assay % Fluor (CTB cell viability fluorescence) (Clone V cells): 111.23%; Toxicity Assay Z-score (CTB cell viability) (Clone V cells): 1.57; Z-score (LCA primary screening) ([2]; 30 µM, 384-well, average of primary screening (n = 2), vs on-plate 0.3% DMSO): −4.14; Split Luciferase Assay Z-score Set 1 ([2]; CC_NCI screening): -4.89; Split Luciferase Assay % Lum Set 1 ([2]; CC_NCI screening): 39.46%; Split Luciferase Assay Z-score Set 2 ([2]; CC_NCI screening): -3.40; Split Luciferase Assay %Lum Set 2 ([2]; CC_NCI screening): 58.26%; Split Luciferase Assay %Lum Avg [2]: 48.86% |
| COC(=O)c1ccc2c(c1)NC(=O)/C2=C(\Nc1ccc(N(C)C(=O)CN2CCN(C)CC2)cc1)c1ccccc1 [BIBF-1120] | 102.06% | 0.26 | 89.46% | -1.47 | 119.91% | 123.80% | 1.61 | 1.94 | 121.85% |  |  |  |
| OCCn1cc(-c2cnc3nnn(Cc4ccc5ncccc5c4)c3n2)cn1 [PF-04217903] | 111.09% | 1.42 |  |  | 90.56% | 78.02% | -0.76 | -1.79 | 84.29% | 99.86% | -0.02 |  |
| C=CCNC1=C2C[C@@H](C)C[C@H](OC)[C@H](O)[C@@H](C)/C=C(\C)[C@H](OC(N)=O)[C@@H](OC)/C=C\C=C(/C)C(=O)NC(=CC1=O)C2=O [Compound 17-AAG] | 80.45% | -2.50 |  |  | 45.98% | 41.61% | -4.37 | -4.75 | 43.80% | 88.49% | -1.61 |  |
| CCn1c(-c2nonc2N)nc2cnc(Oc3cccc(NC(=O)c4ccc(OCCN5CCOCC5)cc4)c3)cc21 [GSK 269962A] | 79.80% | -2.59 | 101.41% | 0.20 | 26.42% | 31.21% | -5.95 | -5.60 | 28.81% |  |  |  |
| COc1cc2/c(=N/c3ccc(Br)cc3F)nc[nH]c2cc1OCC1CCN(C)CC1 [VANDETANIB] | 102.19% | 0.28 |  |  | 85.12% | 88.43% | -1.20 | -0.94 | 86.77% | 85.66% | -2.01 |  |
